Data as given in patent publication US20250018048A1, “FLUCONAZOLE-COX INHIBITOR HYBRIDS: A DUAL-ACTING CLASS OF ANTIFUNGAL AZOLES” (Ramot at Tel-Aviv University Ltd., priority 2022, published 2025).
≈ marks a conversion by molar mass, not a printed value. Entries after “also recorded” stand apart in the source; their conditions may differ.

Columns and labels:
Format in all cases: cell-based
[1] = system: C. auris ATCC MYA5001; experiment: MIC broth double-dilution assay with MTT (CLSI M27-A3); conditions: 37° C., 24 h; for MIC: Candidozyma auris, ATCCMYA5001, YPAD medium, growth score 0 or 1, read-out: MIC against C. auris 5001; for MIC against C. auris 5001: YPAD medium, growth score 0 or 1
Procedure: (§1) Minimal inhibitory concentration broth double-dilution assay: C. auris minimal inhibitory concentrations (MICs) were determined using CLSI M27-A3 guidelines with minor modifications. Starter cultures were streaked from glycerol stock onto YPAD agar plates and grown for 24 h at 37° C. Colonies were suspended in 1 mL PBS and diluted to 1×10^−3 optical density at 600 nm (OD600) and then diluted 1:100 into fresh medium. hybrids dissolved in DMSO were added to YPAD broth (32 μL stock solution in 1218 μL of YPAD broth), and serial double dilutions of hybrids in YPAD were prepared in flat-bottomed 96-well microplates (Corning) to enable testing of concentrations ranging from 64 μg/mL to 0.007 μg/mL. Control wells with yeast cells but no drug and blank wells containing only YPAD were prepared. An equal volume (100 μL) of yeast suspension in YPAD broth was added to each well with the exceptions of the blank wells. After incubation for 24 h at 37° C., MTT (50 μL of a 1 mg/mL solution in ddH2O) was added to each well followed by additional incubation at 37° C. for 2 h. MIC values (Table S3) were defined as the lowest concentration of an antifungal agent that caused a specified reduction in visible growth as per the CLSI M27-A3 protocol. The magnitude of reduction in visible growth was assessed using the following numerical scale: 0, optically clear; 1, slightly hazy; 2, prominent decrease (˜50%) in visible growth; 3, slight reduction in visible growth; and 4, no reduction in visible growth. The MIC was defined based on reduction in growth to 0 or 1. Results were confirmed in two independent experiments, and each concentration was tested in triplicate. FLC and VOR were used as control drugs.

[2] = system: C. auris ATCC MYA5002; experiment: as above; conditions: 37° C., 24 h; for MIC: Candidozyma auris, ATCCMYA5002, YPAD medium, growth score 0 or 1, read-out: MIC against C. auris 5002; for MIC against C. auris 5002: YPAD medium, growth score 0 or 1
Procedure: as §1

[3] = system: C. albicans SN152; experiment: Disk diffusion assay for antifungal tolerance; conditions: casitone agar, disk with 25 μg, 30° C.
Procedure: (§2) To investigate how tolerance is affected by the azole-COX inhibitor hybrids, a comparison of hybrids 1 and 5 to FLC and VOR in a disk diffusion assay was performed. Tolerance was evaluated by comparing the zone of inhibition after 24 h to that after 48 h. The assay was carried out on three representative strains: C. albicans, C. parapsilosis, and C. tropicalis (FIG. 7).
(§3) As shown, compared to FLC and VOR, azole-COX inhibitor hybrids 1 and 5 display reduced antifungal tolerance. Disk diffusion assays were carried out on casitone agar plates containing disks loaded with 25 μg of the tested hybrids. Plates were imaged after 24 h to evaluate antifungal activity (left half of the plate image) and after 48 h to evaluate tolerance (right half of the plate image).
(§4) Disk diffusion assay: Antifungal activities of select hybrids against C. albicans SN152, C. parapsilosis ATCC 22019, and C. tropicalis 660 were confirmed by the disk diffusion assay. Strains were streaked from frozen culture onto YPAD agar and incubated for 24 h at 30° C. Two or three colonies were placed into 1 mL of PBS solution, and OD600 was determined with a TECAN Infinite. OD600 was adjusted to 0.02 for C. albicans SN152 and to 0.025 for C. parapsilosis ATCC 22019 and C. tropicalis 660 by dilution with PBS. Aliquots of 200 μL of the diluted cultures of each strain were plated onto 15-mL casitone agar plates and spread using sterile beads (3 mm, Fisher Scientific). After the plates dried, a single disk (6-mm diameter, Becton Dickinson) with 25 μg of the hybrid being tested was placed in the center of each plate. Plates were then incubated at 30° C. and photographed under the same imaging conditions after 24 h and 48 h. FLC and VOR were used as control drugs.

[4] = system: C. parapsilosis ATCC 22019; experiment: Disk diffusion assay for antifungal tolerance; conditions: casitone agar, disk with 25 μg, 30° C.
Procedure: as §2, §3, §4

[5] = system: C. tropicalis 660; experiment: Disk diffusion assay for antifungal tolerance; conditions: casitone agar, disk with 25 μg, 30° C.
Procedure: as §2, §3, §4

[6] = system: panel of 16 representative strains of different species of the genus Candida; experiment: Antifungal activity (MIC80) against a panel of Candida strains, comparison; conditions: azole-susceptible strains
Procedure: The antifungal activities of the 24 azole-COX inhibitor hybrids were evaluated against a panel of 16 representative strains of different species of the genus Candida. Candida species cause both superficial and systemic infections. The panel included strains of C. albicans, C. glabrata, C. parapsilosis, C. tropicalis, C. guilliermondii, C. dubliniensis, and C. auris (Table S2). To evaluate antifungal activity, the minimal inhibitory concentration 80% (MIC80) values were determined, which were defined as the lowest drug concentrations with turbidity (measured at OD600) less than or equal to that of specific 1:5 dilutions of the growth control. As controls, FLC and VOR, were tested.
MIC80 values were determined using the broth microdilution method over a concentration range of 0.003-64 μg/mL. Orange circles represent C. albicans strains, yellow circles represent C. glabrata strains, and green circles represent C. parapsilosis, C. tropicalis, C. dubliniensis and C. auris. Cells were grown in YPAD medium at 30° C. (For C. auris strains 37° C.) 24 h. Each concentration was tested in triplicate, and results were confirmed in at least two independent experiments.
C. albicans, C. glabrata, C. parapsilosis, C. guilliermondii, C. tropicalis, and C. dubliniensis MICs were determined using CLSI M27-A3 guidelines with minor modifications. Starter cultures were streaked from glycerol stock onto YPAD agar plates and grown for 24 h at 30° C. Colonies were suspended in 1 mL PBS and diluted to 1×10^−3 OD600 and then diluted 1:100 into fresh medium. Hybrids dissolved in DMSO were added to YPAD broth (32 μL stock solution in 1218 μL of YPAD broth), and serial double dilutions of hybrids in YPAD were prepared in flat-bottomed 96-well microplates (Corning) to enable testing of concentrations ranging from 64 μg/mL to 0.003 μg/mL. Control wells with yeast cells but no drug and blank wells containing only YPAD were prepared. An equal volume (100 μL) of yeast suspensions in YPAD broth was added to each well with the exceptions of the blank wells. MIC values (Tables S4-S6) were determined after 24 h at 30° C. by measuring the OD600 using a plate reader (Infinite M200 PRO, Tecan). MIC values were defined as the point at which the OD600 was reduced by >80% compared to the no-drug wells. Each concentration was tested in triplicate, and results were confirmed by two independent sets of experiments. FLC and VOR were used as control drugs.

Row | Structure (SMILES) | MIC [1] | MIC [2] | Tolerance: zone of inhibition after 48 h compared with 24 h [3] | Tolerance: zone of inhibition after 48 h compared with 24 h [4] | Tolerance: zone of inhibition after 48 h compared with 24 h [5] | MIC against C. auris 5001 [1] | MIC against C. auris 5002 [2] | Antifungal potency (MIC80) in comparison with FLC, VOR or the corresponding stereoisomer [6]
1 | OC(Cn1cncn1)(Cn1cncn1)c1ccc(F)cc1F [FLC, fluconazole] | 8 µg/mL (≈ 26.1 µM) | > 64 µg/mL | covered by drug tolerant colonies | covered by drug tolerant colonies | the drug tolerant subpopulation was smaller |  |  | 
2 | CC(C)Cc1ccc([C@H](C)C(=O)NC[C@](O)(Cn2cncn2)c2ccc(F)cc2F)cc1 [Hybrid 1] |  |  | reduced tolerance | reduced tolerance | reduced tolerance | 0.06 µg/mL (≈ 0.136 µM) | 1 µg/mL (≈ 2.26 µM) | lowest MIC80 values against all of the azole-susceptible strains; also recorded: up to two orders of magnitude more potent than FLC and was as potent as VOR
3 | C[C@H](C(=O)NC[C@](O)(Cn1cncn1)c1ccc(F)cc1F)c1ccc(-c2ccccc2)c(F)c1 [Hybrid 5] |  |  | reduced tolerance | reduced tolerance; also recorded: markedly lower than that to VOR | reduced tolerance | 0.06 µg/mL (≈ 0.125 µM) | 4 µg/mL (≈ 8.32 µM) | lowest MIC80 values against all of the azole-susceptible strains; also recorded: more potent than the corresponding R-configured ibuprofen hybrid 6
4 | C[C@@H](c1ncncc1F)[C@](O)(Cn1cncn1)c1ccc(F)cc1F [VOR, voriconazole, reference compound] | 0.03 µg/mL (≈ 0.0859 µM) | 1 µg/mL (≈ 2.86 µM) | covered by drug tolerant colonies | covered by drug tolerant colonies | the drug tolerant subpopulation was smaller |  |  | 
